Source: article PMC3927586, “Protein kinase C-delta inactivation inhibits the proliferation and survival of cancer stem cells in culture and in vivo” (BMC Cancer, 2014)

How the values were obtained:
Hs578T cells = assay: Tumor spheroid formation, Hs578T; type: cell-based, human; conditions: for effect on formation of spheroids, Hs578T: added to culture medium, 96 hr, p≤0.001
Description: (§1) Tumor self-renewing and anchorage-independent spheroids were obtained by culturing breast cancer cells MCF7, Hs587T and MDA231; melanoma cells SBcl2 and FM6; human breast cancer stem cells and pancreatic cancer stem cells in stem cell-selective conditions according to the manufacturer’s instructions (StemCell Technologies, Tukwila, WA). Briefly, cancer and cancer stem cells were propagated in 6-well ultra-low adherent plates (Corning) in Complete MammoCult Medium (Human) by adding 50 mL of MammoCult Proliferation Supplements to 450 mL of MammoCult Basal Medium (StemCell Technologies). The following were added to obtain Complete MammoCult Medium: 4 ug/mL Heparin (StemCell Technologies), 0.48 μg/mL hydrocortisone (StemCell Technologies), 200 U penicillin/ml; and 200 μg streptomycin/ml (Invitrogen).
(§2) Figure 4 Effects of PKCδ inhibitors on human tumor cell spheroid formation. (A) Hs578T and MCF7 were plated under adherent or non-adherent conditions. Tumor spheroids and adherent cells were collected at 96 hr, stained for CD24 and CD44, and analyzed by flow cytometry. (B) Hs578T, MCF7, breast cancer stem cells (BCSC) and pancreatic cancer stem cells (PCSC) were plated in tumor spheroid media, in the presence of rottlerin, BJE6-106, or DMSO (Control). Tumor spheroids were enumerated at 96 hr, and normalized to the number of spheroids in the control cultures (assigned an arbitrary value of 100%). p values for comparison between vehicle and rottlerin or BJE6-106 effects were significant (p≤0.001). Photographs are of representative areas of the culture plates. (C) MCF7 cells were exposed BJE6-106 or to rottlerin at the indicated concentrations. The corresponding equivalent volume of solvent (DMSO) was used as a vehicle control (Vehicle). After 24, 48 and 72 hr of exposure, cell mass was evaluated by MTT assay. Control values were normalized to 100%. p values for comparison between vehicle and rottlerin effects on cell number at 24 hr reached significance at 5 μM, and for BJE6-106 at 0.5 μM (p ≤ 0.02), and were significant for all concentrations tested at 48 and 72 hr time points. (D) Hs578T cells were exposed to vehicle or BJE6-106 (1 μM) for 6, 12, 24, 48 or 96 hr. Viable cells were enumerated and re-plated in media without BJE6-206, and spheroid numbers were quantitated 96 hr later. p values for comparison between vehicle and BJE6-106 effects on spheroid number were significant after 6 hr of exposure (p≤0.02), and remained significant at all time points thereafter. Error bars represent SEM.

PCSC cells = assay: Cell proliferation (MTT) of pancreatic cancer stem cells; type: cell-based, human; conditions: for IC50: Homo sapiens, read-out: IC50 (in culture), growth of PCSC; for IC50 / lowest concentration significantly inhibiting growth of PCSC cultures: 48 hr; for lowest concentration significantly inhibiting growth of PCSC cultures: p ≤ 0.02 vs vehicle
Description: (§3) Cell proliferation was assessed using an MTT [3-(4,5-dimethylthiazol-2-yl)-2,5-diphenyltetrazolium bromide] assay (Roche, Mannheim, Germany). The number of viable cells growing in a single well on a 96-well microtiter plate was estimated by adding 10 μl of MTT solution (5 mg/ml in phosphate-buffered saline [PBS]). After 4 h of incubation at 37°C, the stain was diluted with 100 μl of dimethyl sulfoxide. The optical densities were quantified at a test wavelength of 570 nm and a reference wavelength of 690 nm on a multiwell spectrophotometer. In some assays, MTS was used as substrate (Promega, Madison, WI), and the absorbance of the product was monitored at 490 nm. Cell enumeration was carried out using a hemocytometer, and viable cells identified by trypan blue exclusion.
Figure 2 Effects of PKCδ inhibitors on human cancer stem cells. (A) PCSC and PrCSC cells at 80% confluence were exposed to rottlerin. DMSO served as vehicle control (Vehicle). After 24 and 72 hr of exposure, cell mass was evaluated by MTT assay. Control values were normalized to 100%. p values for comparison between treatments reached significance at 24 hr of exposure (p≤0.01) for both cell types, and remained significant at 72 hr. (B) PCSC and PrCSC cells at 50% confluence were exposed to rottlerin. Cytotoxicity was evaluated by LDH-release assay. Total maximal LDH release was assigned the arbitrary value of 100% (Control). p values for comparison between effects of treatments on LDH release reached significance at 24 hr of exposure (p<0.01) for both cell types, and remained significant at 72 hr. (C) Effects of PKCδ inhibitor on tumor cell clonogenic capacity. PCSC were exposed to vehicle or rottlerin (10 μM) for 6, 18, 24, or 48 hr. Viable cells were enumerated and re-plated in media without inhibitor, and colony numbers were quantitated 15 days later. p values for comparison of treatment effects on clonogenic capacity reached significance (p=0.005) at 18 hr of exposure and remained significant for all subsequent exposure times. The insert is a photograph of stained colonies on plates. (D) Structures of staurosporine, rottlerin, second-generation (KAM1) and third-generation (BJE6-106) derivatives. (E) PCSC and PrCSC cells at 50% confluence were exposed to KAM1 at the indicated concentrations. DMSO served as vehicle control (Vehicle). Cytotoxicity was evaluated by LDH-release assay, as in panel B. p values for comparison between treatment effects on LDH release reached significance at 24 hr of exposure to 2.5 μM KAM1 for PCSC cells and at 10 μM for PrCSC (p≤0.01), and remained significant at 72 hr for all concentrations of KAM1. Error bars represent SEM.
Figure 3 Effects of a 3rd generation small molecule PKCδ inhibitor on human pancreatic cancer stem cell cultures. PCSC cells were grown to 80% confluence in 96-well plates and then exposed to BJE6-106 at concentrations ranging from 0.1 to 20 μM, or to rottlerin at concentrations ranging from 1 to 20 μM. The corresponding equivalent volume of solvent (DMSO) was used as a vehicle control (Vehicle). After 48 and 72 hr of exposure, cell mass was evaluated by MTT assay. Control values were normalized to 100%. Error bars represent SEM. p values for comparison between vehicle and rottlerin effects on cell number at 48 hr reached significance at 1 μM, and for BJE6-106 at 0.1 μM (p ≤ 0.02), and remained significant at the 72 hr time point.

MCF7 cells = assay: Cell proliferation (MTT) of adherent MCF7 cells; type: cell-based, human; conditions: for concentration at which effect on cell number reached significance: MCF7, MTT, 24 hr, p ≤ 0.02; for concentration required to repress growth by more than 80%: MCF7 adherent population, MTT
Description: as §3, §2

MCF7 spheroids = assay: Tumor spheroid formation, MCF7; type: cell-based; conditions: Homo sapiens, 96 hr, read-out: inhibition of growth of MCF7 spheroids
Description: as §1
Figure 4 Effects of PKCδ inhibitors on human tumor cell spheroid formation. […] Tumor spheroids and adherent cells were collected at 96 hr, stained for CD24 and CD44, and analyzed by flow cytometry. […] After 24, 48 and 72 hr of exposure, cell mass was evaluated by MTT assay. […] Viable cells were enumerated and re-plated in media without BJE6-206, and spheroid numbers were quantitated 96 hr later. p values for comparison between vehicle and BJE6-106 effects on spheroid number were significant after 6 hr of exposure (p≤0.02), and remained significant at all time points thereafter. […]

Structure (SMILES)	exposure time for near maximum inhibition of spheroid formation (washout) (Hs578T cells; BJE6-106 at 1 μM, Hs578T)	exposure time that significantly repressed spheroid formation (washout) (Hs578T cells; BJE6-106 at 1 μM, Hs578T, spheroids counted 96 hr after re-plating)	effect on formation of spheroids, Hs578T (Hs578T cells)	IC50 (PCSC cells; MTT)	lowest concentration significantly inhibiting growth of PCSC cultures (PCSC cells; MTT)	concentration at which effect on cell number reached significance (MCF7 cells)	concentration required to repress growth by more than 80% (MCF7 cells)	inhibition at 1 µM (MCF7 spheroids; BJE6-106 at 1 μM)	growth-inhibitory activity on PCSC at 0.5 μM (PCSC cells; 0.5 μM)	effect on proliferation of PCSC (PCSC cells; MTT, as early as 24 hr after exposure)	inhibition at 10 µM (MCF7 spheroids; rottlerin at 10 μM)
CC1(C)C=Cc2cc(CCn3c4ccccc4c4ccccc43)cc(C=O)c2O1 [BJE6-106, 6-(2-(9H-carbazol-9-yl)ethyl)-2,2-dimethyl-2H-chromene-8-carbaldehyde]	≤ 24 h	6 h	very efficiently inhibited	~500 nM	0.1 µM	0.5 µM	> 1 µM	> 90%			
CC(=O)c1c(O)c(C)c(O)c(Cc2c(O)c3c(c(C(=O)/C=C/c4ccccc4)c2O)OC(C)(C)C=C3)c1O [rottlerin, Rottlerin, reference compound]			very efficiently inhibited	~3000 nM	1 µM	5 µM	> 10 µM		no significant inhibitory activity	significant dose-dependent inhibition of proliferation	> 90%
